Results from ChEMBL document CHEMBL3526033, “Identification of human liver cytochrome P450 enzymes involved in the metabolism of SCH 530348 (Vorapaxar), a potent oral thrombin protease-activated receptor 1 antagonist” (Drug Metab Dispos, 2011).
Values belong to the compound of their own block, whether it stands above or below them.

How the values were obtained:
Assay type in all cases: ADME
[1] = Drug level in human intestine microsomes treated with 25 uM vorapaxar after 120 mins by LC-MS/MS analysis in presence of NADPH; conditions: 2 h
Cytochrome P450 2C19 = Cytochrome P450 2C19 (Homo sapiens, UniProt P33261); assay: Activity of human recombinant CYP2C19 assessed as enzyme-mediated drug metabolism treated with 25 uM vorapaxar after 120 mins by LC-MS/MS analysis in presence of NADPH; conditions: 2 h
Cytochrome P450 1A2 [2] = target: T1, Cytochrome P450 1A2 (Homo sapiens, UniProt P05177); assay: Activity of human recombinant CYP1A2 assessed as enzyme-mediated drug metabolism treated with 25 uM vorapaxar after 120 mins by LC-MS/MS analysis in presence of NADPH; conditions: 2 h
T1 sequence (P05177 whole entry): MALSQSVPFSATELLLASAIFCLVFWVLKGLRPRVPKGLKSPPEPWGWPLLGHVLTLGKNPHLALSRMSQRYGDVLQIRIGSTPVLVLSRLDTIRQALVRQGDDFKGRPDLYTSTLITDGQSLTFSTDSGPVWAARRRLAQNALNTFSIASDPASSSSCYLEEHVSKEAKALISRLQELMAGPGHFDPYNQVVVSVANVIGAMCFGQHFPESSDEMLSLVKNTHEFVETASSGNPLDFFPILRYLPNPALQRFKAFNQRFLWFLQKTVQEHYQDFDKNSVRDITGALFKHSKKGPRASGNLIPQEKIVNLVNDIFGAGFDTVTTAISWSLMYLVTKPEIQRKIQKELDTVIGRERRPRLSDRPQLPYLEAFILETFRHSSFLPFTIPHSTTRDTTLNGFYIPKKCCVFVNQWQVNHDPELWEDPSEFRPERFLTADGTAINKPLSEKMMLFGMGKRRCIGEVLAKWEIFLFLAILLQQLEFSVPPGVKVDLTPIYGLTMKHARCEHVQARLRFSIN

[3] = Drug metabolism in human intestine microsomes assessed as 2-hydroxyethyl (1R,3aR,4aR,6R,8aR,9S,9aS)-9-((E)-2-(5-(3-fluorophenyl)pyridin-2-yl)vinyl)-1-methyl-3-oxododecahydronaphtho[2,3-c]furan-6-ylcarbamate formation at 25 uM after 120 mins by LC-MS/MS analysis in presence of NADPH; conditions: 2 h
CYP1A1 = CYP1A1 (Homo sapiens, UniProt P04798); assay: Activity of human recombinant CYP1A1 assessed as enzyme-mediated drug metabolism at 10 uM after 120 mins by LC-MS/MS analysis in presence of NADPH; conditions: read-out: Compound recovery
Liver microsome [4] = assay: Drug metabolism in human liver microsomes assessed as (3R,3aS,4S,4aR,7R,8aR,9aR)-7-amino-4-((E)-2-(5-(3-fluorophenyl)pyridin-2-yl)vinyl)-3-methyldecahydronaphtho[2,3-c]furan-1(3H)-one formation at 10 to 25 uM after 120 mins by LC-MS/MS analysis in presence of orphenadrine; conditions: 2 h
Liver microsome [5] = assay: Drug metabolism in human liver microsomes assessed as 2-hydroxyethyl (1R,3aR,4aR,6R,8aR,9S,9aS)-9-((E)-2-(5-(3-fluorophenyl)pyridin-2-yl)vinyl)-1-methyl-3-oxododecahydronaphtho[2,3-c]furan-6-ylcarbamate formation at 25 uM after 120 mins by LC-MS/MS analysis in presence of astemizole; conditions: 2 h
Liver microsome [6] = assay: Drug metabolism in human liver microsomes assessed as (3R,3aS,4S,4aR,7R,8aR,9aR)-7-amino-4-((E)-2-(5-(3-fluorophenyl)pyridin-2-yl)vinyl)-3-methyldecahydronaphtho[2,3-c]furan-1(3H)-one formation at 10 to 25 uM after 120 mins by LC-MS/MS analysis in presence of CYP2B6-specific inhibitory antibody; conditions: 2 h
Liver microsome [7] = assay: Drug metabolism in human liver microsomes assessed as (3R,3aS,4S,4aR,7R,8aR,9aR)-7-amino-4-((E)-2-(5-(3-fluorophenyl)pyridin-2-yl)vinyl)-3-methyldecahydronaphtho[2,3-c]furan-1(3H)-one formation at 10 to 25 uM after 120 mins by LC-MS/MS analysis in presence of quinidine; conditions: 2 h
Liver microsome [8] = assay: Drug metabolism in human liver microsomes assessed as (3R,3aS,4S,4aR,7R,8aR,9aR)-7-amino-4-((E)-2-(5-(3-fluorophenyl)pyridin-2-yl)vinyl)-3-methyldecahydronaphtho[2,3-c]furan-1(3H)-one formation at 10 to 25 uM after 120 mins by LC-MS/MS analysis in presence of sulfaphenazole; conditions: 2 h
Cytochrome P450 4F3 = target: T2, Cytochrome P450 4F3 (Homo sapiens, UniProt Q08477); assay: Activity of human recombinant CYP4F3B assessed as enzyme-mediated 2-hydroxyethyl (1R,3aR,4aR,6R,8aR,9S,9aS)-9-((E)-2-(5-(3-fluorophenyl)pyridin-2-yl)vinyl)-1-methyl-3-oxododecahydronaphtho[2,3-c]furan-6-ylcarbamate formation at 25 uM after 120 mins by LC-MS/MS analysis in presence of NADPH; conditions: 2 h
T2 sequence (Q08477 whole entry): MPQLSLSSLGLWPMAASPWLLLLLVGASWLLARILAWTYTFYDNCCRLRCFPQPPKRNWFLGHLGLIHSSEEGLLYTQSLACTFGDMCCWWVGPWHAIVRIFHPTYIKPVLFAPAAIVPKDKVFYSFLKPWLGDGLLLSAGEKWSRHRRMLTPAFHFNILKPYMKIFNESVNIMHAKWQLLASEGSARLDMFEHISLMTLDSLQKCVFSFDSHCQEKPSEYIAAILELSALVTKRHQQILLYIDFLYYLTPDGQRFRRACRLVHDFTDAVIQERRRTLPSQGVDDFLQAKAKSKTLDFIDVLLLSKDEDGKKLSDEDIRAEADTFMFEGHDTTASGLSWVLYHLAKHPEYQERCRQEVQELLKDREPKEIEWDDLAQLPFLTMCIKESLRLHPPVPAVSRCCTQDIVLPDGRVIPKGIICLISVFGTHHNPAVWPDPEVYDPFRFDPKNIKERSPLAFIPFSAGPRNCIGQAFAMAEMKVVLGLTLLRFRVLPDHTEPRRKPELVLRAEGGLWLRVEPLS

Cytochrome P450 4A11 = Cytochrome P450 4A11 (Homo sapiens, UniProt Q02928); assay: Activity of human recombinant CYP4A11 assessed as enzyme-mediated 2-hydroxyethyl (1R,3aR,4aR,6R,8aR,9S,9aS)-9-((E)-2-(5-(3-fluorophenyl)pyridin-2-yl)vinyl)-1-methyl-3-oxododecahydronaphtho[2,3-c]furan-6-ylcarbamate formation at 25 uM after 120 mins by LC-MS/MS analysis in presence of NADPH; conditions: 2 h
Cytochrome P450 3A5 = Cytochrome P450 3A5 (Homo sapiens, UniProt P20815); assay: Activity of human recombinant CYP3A5 assessed as enzyme-mediated 2-hydroxyethyl (1R,3aR,4aR,6R,8aR,9S,9aS)-9-((E)-2-(5-(3-fluorophenyl)pyridin-2-yl)vinyl)-1-methyl-3-oxododecahydronaphtho[2,3-c]furan-6-ylcarbamate formation at 25 uM after 120 mins by LC-MS/MS analysis in presence of NADPH; conditions: 2 h
Cytochrome P450 1A2 [9] = target: T1, Cytochrome P450 1A2; assay: Activity of human recombinant CYP1A2 assessed as enzyme-mediated (3R,3aS,4S,4aR,7R,8aR,9aR)-7-amino-4-((E)-2-(5-(3-fluorophenyl)pyridin-2-yl)vinyl)-3-methyldecahydronaphtho[2,3-c]furan-1(3H)-one formation at 25 uM after 120 mins by LC-MS/MS analysis in presence of NADPH; conditions: 2 h

Chain of Cytochrome P450 2C19 (P33261 whole entry): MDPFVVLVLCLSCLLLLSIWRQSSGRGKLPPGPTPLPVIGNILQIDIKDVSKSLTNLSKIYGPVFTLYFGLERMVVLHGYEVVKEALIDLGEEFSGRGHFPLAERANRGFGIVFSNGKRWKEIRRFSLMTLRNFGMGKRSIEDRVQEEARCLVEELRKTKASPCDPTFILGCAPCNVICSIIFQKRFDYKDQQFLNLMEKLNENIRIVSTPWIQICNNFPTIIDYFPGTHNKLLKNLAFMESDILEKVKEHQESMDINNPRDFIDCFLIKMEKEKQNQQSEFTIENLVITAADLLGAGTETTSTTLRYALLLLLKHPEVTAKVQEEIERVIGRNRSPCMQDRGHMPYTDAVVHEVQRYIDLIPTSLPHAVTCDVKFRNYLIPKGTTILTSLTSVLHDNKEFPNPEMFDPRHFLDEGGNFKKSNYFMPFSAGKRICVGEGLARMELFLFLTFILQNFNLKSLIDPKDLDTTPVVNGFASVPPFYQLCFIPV
Chain of Cytochrome P450 4A11 (Q02928 whole entry): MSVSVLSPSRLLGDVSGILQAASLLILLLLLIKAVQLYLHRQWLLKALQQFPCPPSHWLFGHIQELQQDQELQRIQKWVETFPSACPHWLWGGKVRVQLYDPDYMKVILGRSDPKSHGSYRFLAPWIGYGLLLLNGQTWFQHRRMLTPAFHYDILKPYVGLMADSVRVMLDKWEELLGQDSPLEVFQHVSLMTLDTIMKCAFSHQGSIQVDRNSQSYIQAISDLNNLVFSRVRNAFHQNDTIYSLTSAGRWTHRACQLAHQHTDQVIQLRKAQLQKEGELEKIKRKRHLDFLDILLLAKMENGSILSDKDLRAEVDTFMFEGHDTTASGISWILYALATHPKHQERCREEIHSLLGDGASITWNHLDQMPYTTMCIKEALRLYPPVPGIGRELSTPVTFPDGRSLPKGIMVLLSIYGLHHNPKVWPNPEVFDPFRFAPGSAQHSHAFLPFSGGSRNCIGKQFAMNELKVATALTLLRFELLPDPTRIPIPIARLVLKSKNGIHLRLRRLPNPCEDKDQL
Chain of Cytochrome P450 3A5 (P20815 whole entry): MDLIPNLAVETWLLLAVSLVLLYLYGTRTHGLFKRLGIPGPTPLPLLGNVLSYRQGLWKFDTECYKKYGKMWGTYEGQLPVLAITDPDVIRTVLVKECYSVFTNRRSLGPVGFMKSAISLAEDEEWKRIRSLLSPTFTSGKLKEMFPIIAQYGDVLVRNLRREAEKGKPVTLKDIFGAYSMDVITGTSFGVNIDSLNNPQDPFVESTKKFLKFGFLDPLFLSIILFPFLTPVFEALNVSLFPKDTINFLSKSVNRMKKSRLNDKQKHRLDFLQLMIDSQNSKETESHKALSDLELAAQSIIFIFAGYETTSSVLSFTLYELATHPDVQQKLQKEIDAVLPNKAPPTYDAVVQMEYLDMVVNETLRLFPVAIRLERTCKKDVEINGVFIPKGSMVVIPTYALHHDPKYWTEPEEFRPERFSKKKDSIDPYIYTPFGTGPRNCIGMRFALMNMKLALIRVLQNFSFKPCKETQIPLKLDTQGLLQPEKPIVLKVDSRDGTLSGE
Chain of CYP1A1 (P04798 whole entry): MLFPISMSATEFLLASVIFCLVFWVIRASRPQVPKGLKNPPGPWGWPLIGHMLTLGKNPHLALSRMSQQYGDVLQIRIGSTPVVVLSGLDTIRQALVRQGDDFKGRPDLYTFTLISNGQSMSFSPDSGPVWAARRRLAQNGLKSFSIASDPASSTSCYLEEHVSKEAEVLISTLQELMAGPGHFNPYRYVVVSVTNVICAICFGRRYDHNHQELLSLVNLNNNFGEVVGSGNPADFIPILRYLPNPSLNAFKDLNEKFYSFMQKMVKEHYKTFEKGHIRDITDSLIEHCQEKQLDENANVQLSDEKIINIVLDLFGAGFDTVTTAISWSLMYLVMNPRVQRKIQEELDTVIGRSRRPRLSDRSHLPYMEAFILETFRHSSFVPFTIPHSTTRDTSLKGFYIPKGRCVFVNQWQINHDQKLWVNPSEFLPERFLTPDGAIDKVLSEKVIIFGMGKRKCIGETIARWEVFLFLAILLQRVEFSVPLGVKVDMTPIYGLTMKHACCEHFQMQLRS

Drug metabolism [1]: metabolite_detected
Drug metabolism (Cytochrome P450 2C19): metabolite_detected
Drug metabolism (Cytochrome P450 1A2 [2]): metabolite_detected
Structure (SMILES): C[C@H]1OC(=O)[C@@H]2C[C@@H]3C[C@H](NC(=O)OCCO)CC[C@H]3[C@H](/C=C/c3ccc(-c4cccc(F)c4)cn3)[C@H]12

Drug metabolism [3]: metabolite_detected
remaining at 2 h, 10 µM (CYP1A1): 96.3%
Drug metabolism (Liver microsome [4]): metabolite_not_detected
Drug metabolism (Liver microsome [5]): metabolite_not_detected
Drug metabolism (Liver microsome [6]): metabolite_detected
Drug metabolism (Liver microsome [7]): metabolite_detected
Drug metabolism (Liver microsome [8]): metabolite_detected
Structure (SMILES): CCOC(=O)N[C@@H]1CC[C@@H]2[C@@H](C1)C[C@H]1C(=O)O[C@H](C)[C@H]1[C@H]2/C=C/c1ccc(-c2cccc(F)c2)cn1 [VORAPAXAR]

Drug metabolism (Cytochrome P450 4F3): metabolite_detected
Drug metabolism (Cytochrome P450 4A11): metabolite_detected
Drug metabolism (Cytochrome P450 3A5): metabolite_detected
Drug metabolism (Cytochrome P450 1A2 [9]): metabolite_detected
Structure (SMILES): CCOC(=O)N[C@@H]1CC[C@@H]2[C@@H](C1)C[C@H]1C(=O)O[C@H](C)[C@H]1[C@H]2/C=[14CH]/c1ccc(-c2cccc(F)c2)cn1
